This note sets out measurements from patent US8846933B2, “N-link hydroxamic acid derivatives useful as antibacterial agents” (Pfizer Inc., priority 2009, dated 2014).

Holding throughout (type): cell-based
Assay [1] relates to Escherichia coli EC-1: VOGEL, mouse virulent. In words: MIC determination (CLSI), strain EC-1. The following applies: Escherichia coli EC-1, VOGEL, mouse virulent; unit assumed. In a few lines:
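The mouse-virulent VOGEL isolate of E. coli, EC-1, served as test organism. Minimum inhibitory concentration was measured by CLSI dilution methodology (M7-A7; M100-S18 standards).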

Assay [2] deals with Pseudomonas aeruginosa UI-18: Wild-type (PA-7). As to the kind of experiment: MIC determination (CLSI), strain PA-7. The note with it: Pseudomonas aeruginosa UI-18, wild-type; unit assumed. The gist of the method: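 Strain tested was P. aeruginosa UI-18, a wild-type isolate labelled PA-7. Minimum inhibitory concentrations followed CLSI dilution methodology for aerobically growing bacteria (M7-A7, M100-S18).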

The test system of assay [3] is Acinetobacter baumanii/haemolyticus: Multidrug-resistant clinical isolate (AB-3167). As to the kind of experiment: MIC determination (CLSI), strain AB-3167. The following applies: unit assumed. Here is the method:
The in vitro antibacterial activity of compounds described in the Examples was evaluated by minimum inhibitory concentration (MIC) testing according to Clinical and Laboratory Standards Institute (CLSI, formerly NCCLS) guidelines. See: Clinical and Laboratory Standards Institute. Methods for Dilution Antimicrobial Susceptibility Tests for Bacteria that Grow Aerobically; Approved Standard-Seventh Edition. CLSI document M7-A7 [ISBN 1-56238-587-9]. Clinical and Laboratory Standards Institute, 940 West Valley Road, Suite 1400, Wayne, Pa. 19087-1898 USA, 2006; also Clinical and Laboratory Standards Institute. Performance Standards for Antimicrobial Susceptibility Testing; Eighteenth Informational Supplement. CLSI document M100-S18 [ISBN1-56238-653-0].Clinical and Laboratory Standards Institute.
The following bacterial strains were used in these MIC determinations:
2) Acinetobacter baumanii/haemolyticus: Multidrug-resistant clinical isolate labeled as AB-3167 in Tables 4 and 5;

The compound `CC1(O)CCC(Oc2ccc(-c3ccn(CC[C@](C)(C(=O)NO)S(C)(=O)=O)c(=O)c3)cc2F)CC1` (stereo partly drawn) [Example 10-I, (2R)-4-[4-{3-fluoro-4-[(4-hydroxy-4-methylcyclohexyl)oxy]phenyl}-2-oxopyridin-1(2H)-yl]-N-hydroxy-2-methyl-2-(methylsulfonyl)butanamide] displayed an EC-1 (MIC) in assay [1] of 0.5 µg/mL. Moreover, the PA-7 (MIC) in assay [2] came to 2 µg/mL. For the same compound, the AB-3167 (MIC) in assay [3] was greater than 64 µg/mL.
In assay [1], `CC(C)(O)COc1ccc(-c2ccn(CCC(C)(C(=O)NO)S(C)(=O)=O)c(=O)c2)cc1` (stereo not drawn) [Example 10-J, N-hydroxy-4-{4-[4-(2-hydroxy-2-methylpropoxy)phenyl]-2-oxopyridin-1(2H)-yl}-2-methyl-2-(methylsulfonyl)butanamide] showed an EC-1 (MIC) of 4 µg/mL. The compound also came in with a PA-7 (MIC) in assay [2] of 8 µg/mL. Also, the AB-3167 (MIC) in assay [3] is greater than 64 µg/mL.
With `CC(C)(O)C(O)CCOc1ccc(-c2ccn(CC[C@](C)(C(=O)NO)S(C)(=O)=O)c(=O)c2)cc1` (stereo partly drawn) [Example 10-K, (2R)-4-[4-{4-[(3,4-dihydroxy-4-methylpentyl)oxy]phenyl}-2-oxopyridin-1(2H)-yl]-N-hydroxy-2-methyl-2-(methylsulfonyl)butanamide], the EC-1 (MIC) in assay [1] came to 8 µg/mL. In assay [2], this compound registered a PA-7 (MIC) of 8 µg/mL. The same compound yielded an AB-3167 (MIC) in assay [3] greater than 64 µg/mL.
`C[C@@](CCn1ccc(-c2ccc(OC[C@H]3CC[C@@H](O)CC3)cc2F)cc1=O)(C(=O)NO)S(C)(=O)=O` [Example 10-L, (2R)-4-[4-{2-fluoro-4-[(cis-4-hydroxycyclohexyl)methoxy]phenyl}-2-oxopyridin-1(2H)-yl]-N-hydroxy-2-methyl-2-(methylsulfonyl)butanamide] yielded an EC-1 (MIC) in assay [1] of 0.25 µg/mL. Further, in assay [2], the PA-7 (MIC) came out at 1 µg/mL. The compound also showed an AB-3167 (MIC) in assay [3] greater than 64 µg/mL.
For `C[C@@](CCn1ccc(-c2ccccc2)cc1=O)(C(=O)NO)S(C)(=O)=O` [Example 11, (2R)-N-Hydroxy-2-methyl-2-(methylsulfonyl)-4-(2-oxo-4-phenylpyridin-1(2H)-yl)butanamide], in that order: 8 µg/mL, 1 µg/mL and 64 µg/mL.
As to `Cc1c(O)ccc(-c2ccn(CC[C@](C)(C(=O)NO)S(C)(=O)=O)c(=O)c2)c1F` [Example 12, (2R)-4-[4-(2-fluoro-4-hydroxy-3-methylphenyl)-2-oxopyridin-1(2H)-yl]-N-hydroxy-2-methyl-2-(methylsulfonyl)butanamide], the EC-1 (MIC) in assay [1] came out at 16 µg/mL. Further, the PA-7 (MIC) in assay [2] worked out at 16 µg/mL. Further, in assay [3], the AB-3167 (MIC) is greater than 64 µg/mL.
For `Cc1ccc(-c2ccn(CC[C@](C)(C(=O)NO)S(C)(=O)=O)c(=O)c2)c(F)c1` [Example 13, (2R)-4-[4-(2-fluoro-4-methylphenyl)-2-oxopyridin-1(2H)-yl]-N-hydroxy-2-methyl-2-(methylsulfonyl)butanamide], the EC-1 (MIC) in assay [1] turned out to be 0.5 µg/mL. This compound also had a PA-7 (MIC) in assay [2] of 0.5 µg/mL. Further, in assay [3], the AB-3167 (MIC) is greater than 64 µg/mL.
As to `C[C@@](CCn1ccc(-c2cccc(F)c2F)cc1=O)(C(=O)NO)S(C)(=O)=O` [Example 14, (2R)-4-[4-(2,3-difluorophenyl)-2-oxopyridin-1(2H)-yl]-N-hydroxy-2-methyl-2-(methylsulfonyl)butanamide], in assay [1], the EC-1 (MIC) is 0.5 µg/mL. In assay [2], this compound displayed a PA-7 (MIC) of 0.5 µg/mL. In assay [3], the AB-3167 (MIC) is greater than 64 µg/mL.
As for `C[C@@](CCn1ccc(-c2ccc(Cl)cc2)cc1=O)(C(=O)NO)S(C)(=O)=O` [Example 15, (2R)-4-[4-(4-chlorophenyl)-2-oxopyridin-1(2H)-yl]-N-hydroxy-2-methyl-2-(methylsulfonyl)butanamide], the EC-1 (MIC) in assay [1] was 0.5 µg/mL. This compound also had a PA-7 (MIC) in assay [2] of 0.5 µg/mL. In assay [3], this compound had an AB-3167 (MIC) greater than 64 µg/mL.
Regarding `Cc1ccc(-c2ccn(CC[C@](C)(C(=O)NO)S(C)(=O)=O)c(=O)c2)cc1` [Example 16, (2R)-N-hydroxy-2-methyl-4-[4-(4-methylphenyl)-2-oxopyridin-1(2H)-yl]-2-(methylsulfonyl)butanamide], the EC-1 (MIC) in assay [1] was found to be 0.5 µg/mL. Moreover, the PA-7 (MIC) in assay [2] amounted to 0.5 µg/mL. The AB-3167 (MIC) in assay [3] is greater than 64 µg/mL.
In turn, `COc1ccc(-c2ccn(CC[C@](C)(C(=O)NO)S(C)(=O)=O)c(=O)c2)cc1` [Example 17, (2R)-N-hydroxy-4-[4-(4-methoxyphenyl)-2-oxopyridin-1(2H)-yl]-2-methyl-2-(methylsulfonyl)butanamide] came in with an EC-1 (MIC) in assay [1] of 0.5 µg/mL. The PA-7 (MIC) in assay [2] was found to be 0.5 µg/mL. In addition, the AB-3167 (MIC) in assay [3] is greater than 64 µg/mL.
For `C[C@@](CCn1ccc(-c2ccc3c(c2)OCCO3)cc1=O)(C(=O)NO)S(C)(=O)=O` [Example 18, (2R)-4-[4-(2,3-dihydro-1,4-benzodioxin-6-yl)-2-oxopyridin-1(2H)-yl]-N-hydroxy-2-methyl-2-(methylsulfonyl)butanamide], the EC-1 (MIC) in assay [1] was greater than 64 µg/mL. The PA-7 (MIC) in assay [2] was 1 µg/mL. The compound further displayed an AB-3167 (MIC) in assay [3] greater than 64 µg/mL.
With `Cc1cc2cc(-c3ccn(CC[C@](C)(C(=O)NO)S(C)(=O)=O)c(=O)c3)ccc2[nH]1` [Example 19, (2R)-N-hydroxy-2-methyl-4-[4-(2-methyl-1H-indol-5-yl)-2-oxopyridin-1(2H)-yl]-2-(methylsulfonyl)butanamide], the EC-1 (MIC) in assay [1] is 1 µg/mL. In addition, the PA-7 (MIC) in assay [2] is 2 µg/mL. Moreover, the AB-3167 (MIC) in assay [3] was greater than 64 µg/mL.
Consider `C[C@@](CCn1ccc(-c2ccc(Cl)cc2F)cc1=O)(C(=O)NO)S(C)(=O)=O` [Example 20, (2R)-4-[4-(4-chloro-2-fluorophenyl)-2-oxopyridin-1(2H)-yl]-N-hydroxy-2-methyl-2-(methylsulfonyl)butanamide], for which the EC-1 (MIC) in assay [1] stood at 0.25 µg/mL. In assay [2], this compound had a PA-7 (MIC) of 0.25 µg/mL. Moreover, the AB-3167 (MIC) in assay [3] was greater than 64 µg/mL.
The compound `COc1ccc(-c2ccn(CC[C@](C)(C(=O)NO)S(C)(=O)=O)c(=O)c2)c(F)c1` [Example 21, (2R)-4-[4-(2-fluoro-4-methoxyphenyl)-2-oxopyridin-1(2H)-yl]-N-hydroxy-2-methyl-2-(methylsulfonyl)butanamide] yielded an EC-1 (MIC) in assay [1] of 0.125 µg/mL. Besides, the PA-7 (MIC) in assay [2] stood at 0.25 µg/mL. In assay [3], this compound had an AB-3167 (MIC) of 32 µg/mL.
With `C[C@@](CCn1ccc(-c2c(F)ccc(F)c2F)cc1=O)(C(=O)NO)S(C)(=O)=O` [Example 22, (2R)-N-hydroxy-2-methyl-2-(methylsulfonyl)-4-[2-oxo-4-(2,3,6-trifluorophenyl)pyridin-1(2H)-yl]butanamide], in assay [1], the EC-1 (MIC) came out at 2 µg/mL. The compound also came in with a PA-7 (MIC) in assay [2] of 4 µg/mL. The compound further came in with an AB-3167 (MIC) in assay [3] greater than 64 µg/mL.
Compound `Cc1nccc(-c2ccc(-c3ccn(CC[C@](C)(C(=O)NO)S(C)(=O)=O)c(=O)c3)cc2)n1` [Example 23, (2R)-N-hydroxy-2-methyl-4-{4-[4-(2-methylpyrimidin-4-yl)phenyl]-2-oxopyridin-1(2H)-yl}-2-(methylsulfonyl)butanamide] had an EC-1 (MIC) in assay [1] of 2 µg/mL. This compound came in with a PA-7 (MIC) in assay [2] of 2 µg/mL. Besides, the AB-3167 (MIC) in assay [3] is greater than 64 µg/mL.
In turn, `Cn1nccc1-c1ccc(-c2ccn(CC[C@](C)(C(=O)NO)S(C)(=O)=O)c(=O)c2)cc1` [Example 24, (2R)-N-hydroxy-2-methyl-4-{4-[4-(1-methyl-1H-pyrazol-5-yl)phenyl]-2-oxopyridin-1(2H)-yl}-2-(methylsulfonyl)butanamide] had an EC-1 (MIC) in assay [1] of 1 µg/mL. This compound came in with a PA-7 (MIC) in assay [2] of 2 µg/mL. Further, the AB-3167 (MIC) in assay [3] was greater than 64 µg/mL.
`Cc1nc(-c2ccc(-c3ccn(CC[C@](C)(C(=O)NO)S(C)(=O)=O)c(=O)c3)cc2)co1` [Example 25, (2R)-N-hydroxy-2-methyl-4-{4-[4-(2-methyl-1,3-oxazol-4-yl)phenyl]-2-oxopyridin-1(2H)-yl}-2-(methylsulfonyl)butanamide] yielded an EC-1 (MIC) in assay [1] of 1 µg/mL. Besides, in assay [2], the PA-7 (MIC) turned out to be 2 µg/mL. Besides, the AB-3167 (MIC) in assay [3] was greater than 64 µg/mL.
For `Cc1ncc(-c2ccc(-c3ccn(CC[C@](C)(C(=O)NO)S(C)(=O)=O)c(=O)c3)cc2)cn1` [Example 27, (2R)-N-hydroxy-2-methyl-4-{4-[4-(2-methylpyrimidin-5-yl)phenyl]-2-oxopyridin-1(2H)-yl}-2-(methylsulfonyl)butanamide], in that order: 16 µg/mL, 4 µg/mL and greater than 64 µg/mL.
Taken in the same sequence, the figures for `C[C@@](CCn1ccc(-c2ccc(OC(F)F)cc2F)cc1=O)(C(=O)NO)S(C)(=O)=O` [Example 28, (2R)-4-{4-[4-(difluoromethoxy)-2-fluorophenyl]-2-oxopyridin-1(2H)-yl}-N-hydroxy-2-methyl-2-(methylsulfonyl)butanamide] were 0.25 µg/mL, 0.5 µg/mL and greater than 64 µg/mL.
In assay [1], `CC(CCn1ccc(-c2ccc(Oc3ccccn3)cc2)cc1=O)(C(=O)NO)S(C)(=O)=O` (stereo not drawn) [Example 29, N-Hydroxy-2-methyl-2-(methylsulfonyl)-4-{2-oxo-4-[4-(pyridin-2-yloxy)phenyl]pyridin-1(2H)-yl}butanamide] gave an EC-1 (MIC) of 0.5 µg/mL. Further, the PA-7 (MIC) in assay [2] turned out to be 4 µg/mL. The AB-3167 (MIC) in assay [3] is greater than 64 µg/mL.
